Test results reported in the NIST ThermoML archive (doi:10.1016/j.tca.2012.10.024).
± gives the expanded uncertainty stated by the source.

Key:
[1] = refractive index (Na D-line) (dimensionless); settings: 101.33 kPa, Liquid, Standard Abbe refractometry
[2] = relative permittivity at zero frequency (dimensionless); settings: 101.33 kPa, Liquid, Parallel plate capacitor
[3] = 101.33 kPa, Liquid, Pycnometric method

Structure (SMILES) | refractive index ([1]; 293.15 K) | refractive index ([1]; 298.15 K) | refractive index ([1]; 303.15 K) | relative permittivity at zero frequency ([2]; 293.15 K) | relative permittivity at zero frequency ([2]; 298.15 K) | relative permittivity at zero frequency ([2]; 303.15 K) | mass density ([3]; 293.15 K) | mass density ([3]; 298.15 K) | mass density ([3]; 303.15 K)
COCCOCCOCCOCCOC [2,5,8,11,14-pentaoxapentadecane] | 1.4326 ± 0.0009 | 1.4306 ± 0.0009 | 1.4286 ± 0.0009 | 7.939 ± 0.48 | 7.816 ± 0.47 | 7.692 ± 0.46 | 1011.06 ± 1.4 kg/m3 | 1007.07 ± 1.4 kg/m3 | 1002.49 ± 1.4 kg/m3
CCCCCCCC [octane] | 1.3976 ± 0.0008 | 1.3952 ± 0.0008 | 1.3929 ± 0.0008 | 1.968 ± 0.12 | 1.961 ± 0.12 | 1.954 ± 0.12 | – | – | –
CCCCCO [pentan-1-ol] | 1.41 ± 0.0008 | 1.4082 ± 0.0008 | 1.4061 ± 0.0008 | 15.739 ± 0.94 | 15.158 ± 0.91 | 14.579 ± 0.88 | – | – | –
